Data set [1] addresses T1, IRAK4 kinase (Homo sapiens, UniProt Q9NWZ3).
T1 sequence (Q9NWZ3 1-460): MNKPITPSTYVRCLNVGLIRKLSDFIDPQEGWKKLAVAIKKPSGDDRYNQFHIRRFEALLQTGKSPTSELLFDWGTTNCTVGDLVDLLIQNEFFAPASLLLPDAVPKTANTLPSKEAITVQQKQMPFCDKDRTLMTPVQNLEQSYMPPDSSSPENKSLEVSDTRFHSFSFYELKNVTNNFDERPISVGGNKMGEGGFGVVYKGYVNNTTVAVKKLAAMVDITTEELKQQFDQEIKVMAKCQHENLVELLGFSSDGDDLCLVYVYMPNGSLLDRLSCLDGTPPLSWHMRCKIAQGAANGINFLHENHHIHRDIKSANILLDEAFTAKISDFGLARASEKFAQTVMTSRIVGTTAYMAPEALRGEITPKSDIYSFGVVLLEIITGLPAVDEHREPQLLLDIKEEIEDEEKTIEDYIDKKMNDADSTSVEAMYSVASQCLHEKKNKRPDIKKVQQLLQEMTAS
Nature of the data set: IRAK4 kinase activity test (KinEASE-STK HTRF kit). It counts as biochemical. The following applies: IRAK4 kinase inhibition, 7 μM ATP, 37° C. 120 min. The procedure: KinEASE-STK Si serine/threonine kinase kit (Cisbio) was used to detect the inhibitory effect of the compound on IRAK4 kinase activity. The specific method was: the compound was dissolved in dimethyl sulfoxide, and then it was diluted with the buffer solution of the kit by equal gradient to make the final concentration range of the tested compound in the reaction system 10000 nM-0.038 nM, then 2.5 nM kinase, 1 μM biotinylated polypeptide substrate and 7 μM adenosine triphosphate (ATP) were added in sequence and incubated at 37° C. for 120 min. Subsequently, anti-phosphorylated serine/threonine antibody coupled with europium element compound and modified XL665 streptavidin were added to the reaction system to terminate the reaction. After incubating at room temperature for 1 h, the fluorescence intensity of each well at the emission wavelength of 620 nm and 665 nm and the excitation wavelength of 337 nm was determined in HTRF mode on the microplate reader EnVision (PerkinElmer), the ratio value was calculated using the formula Ratio=(665 nm/620 nm)×10^4. By comparing with the fluorescence intensity ratio of the control group, the inhibition rate of the compound at each concentration was calculated, and then the IC50 value of the compound was obtained by fitting the nonlinear curve with the logarithmic concentration-inhibition rate by GraphPad Prism 7.
Background: In TR-FRET formats the signal depends on donor and acceptor labels being close together.

For data set [2], the target named is T2, IRAK4 kinase protein in THP-1 cells (Homo sapiens, UniProt Q9NWZ3).
T2 construct: endogenous in cells; host or cells: THP-1 cells
T2 sequence (Q9NWZ3 1-460): T1 sequence (Q9NWZ3 1-460)
In words: Degradation of IRAK4 in THP-1 cells by Western Blot. It counts as cell-based. The settings on record: 24 hours; for DC50 / Dmax: IRAK4 degradation in THP-1 cells; for DC50: read-out: WB DC50; for Dmax: read-out: WB Dmax; for WB D(%) (300 nM) / WB D(%) (1000 nM): degradation percentage of IRAK4 in THP-1 cells; for WB D(%) (300 nM): compound 300 nM; for WB D(%) (1000 nM): compound 1000 nM. On the procedure: Each well of the 24-well cell culture plate was inoculated with 0.95 mL THP-1 cells (stem cell bank of Chinese academy of sciences) with a cell density of 5×10^5 cells/well. The cell plate was placed in a 5% carbon dioxide incubator and cultured overnight at 37° C., then 50 μL compound in dimethyl sulfoxide was added. The final concentration of the compound was in the range of 1-3000 nM. After continuous cultivation for 24 hours, the cells were collected into a 1.5 mL centrifuge tube, centrifuged at 1000 rpm and 4° C. for 5 minutes. Cell precipitation was washed twice with 1×DPBS, resuspended cells were lysed with 200 μL lysate (cell lysate was Western and IP cell lysate (Beyotime), supplemented with 1 mM mixture of phenylmethylsulfonyl fluoride and protease inhibitor (Beyotime)), left on ice for 30 minutes, then centrifuged at 14000 g at 4° C. for 10 minutes, and the supernatant was taken to detect IRAK4 protein level by Western blot.
The total protein concentration in the supernatant of cell lysis was determined by BCA protein quantitative kit (Tiangen). According to the concentration of total protein detected by BCA, the supernatant was adjusted to […] with PBS and 5×SDS-PAGE protein loading buffer (Beyotime), bathed in water at 100° C. for 10 minutes, then placed in ice bath for 5 minutes, centrifuged at 14000 g and 4° C. for 5 minutes, and then collected as WB loading sample. Prefabricated glue (KeyGEN) was used for protein electrophoresis with a loading amount of 10 μL (total protein 2 μg). After Tris-MOPS-SDS electrophoresis solution (Adamas), 120V constant pressure electrophoresis was performed. After electrophoresis, the protein on the adhesive strip was transferred to PVDF membrane with a constant current of […] for 50 minutes. After the membrane was transferred, the membrane was added in 1×QuickBlock blocking buffer (Beyotime) and incubated for 30 minutes at room temperature. After blocking, PVDF membranes were incubated with IRAK4 primary antibody (Abcam) overnight at 4°, the membranes were washed with TBST buffer (2.4 g Tris, 8.8 g NaCl, 1.5 mL Tween 20, pH adjusted to 7.4, constant volume to 1 L) for 30 minutes, incubated with secondary antibody (Abcam) for 2 hours at room temperature, finally incubated with Clarity Western ECL Substrate (BIO-RAD) for 5 minutes for luminescence development, chemiluminescence imaging system (Clinx, chemiScope 6200 Touch) was used for development and protein mapping photography. The protein map was analyzed by Clinx chemiluminescence analysis software for grayscale values. Using the formula: grayscale correction value=(target protein grayscale value/corresponding internal reference grayscale value)×[…], the grayscale correction value of each sample was calculated. The degradation rate was calculated by comparing with the grayscale correction value of the control group. Furthermore, DC50 and Dmax values of the compound were obtained by the nonlinear curve fitting with the logarithmic concentration-inhibition rate by GraphPad Prism 7.
(In western blotting, separated proteins are transferred to a membrane and probed.)

A short description of data set [3]: Pharmacokinetic study in mice. The settings on record: for AUC(0-t) / bioavailability / Cmax: male, SD, mouse, plasma; for bioavailability: gavage 100 mg/kg vs intravenous 1 mg/kg. It counts as in vivo, SD mice. The procedure: The following experimental scheme was used to study the pharmacokinetic behavior of the compound of the present invention in mice and evaluate its pharmacokinetic characteristics.
Experimental scheme: 3 healthy SD mice, male, weighing […], were given 100 mg/kg compound by gavage with a volume of 10 mL/kg, prepared with […] (w/v). Before the test, they were fasted for 12 hours and freely drank water. Food was uniformly consumed 4 h after administration.
Three healthy SD mice, male, weighing […], were given 1 mg/kg compound intravenously with a volume of 5 mL/kg, prepared with 5% DMSO/15% solutol %80% PBS (w/v). Before the test, they were fasted for 12 hours and freely drank water. Food was uniformly consumed 4 h after administration.
0.1 mL of venous blood was taken through the submaxillary venous plexus of mice at 0.08 h, 0.25 h, 0.5 h, 1 h, 2 h, 4 h, 8 h, 24 h after gavage administration and 0.08 h, 0.25 h, 0.5 h, 1 h, 2 h, 4 h, 8 h, 24 h after intravenous administration, placed in a heparin test tube, centrifuged at 11000 rpm for 5 min, and plasma was separated, the concentration of compounds in plasma was determined by liquid chromatography-tandem mass spectrometry.

Where [4] appears, read: po, gavage administration 100 mg/kg.

The IC50 is the concentration that gives 50% inhibition. Lower therefore signals greater potency. A word on the DC50: it is the concentration at which degradation of the target reaches its halfway point. By Dmax is commonly meant the largest share of the target that was removed. For orientation: AUC(0-t) means the area under the concentration-time curve up to a stated or last time point. The term bioavailability denotes the share of a dose that reaches the circulation, judged against a reference dose that is usually intravenous. Read a high bioavailability as much systemic uptake. Broadly, the Cmax is the highest concentration seen after dosing.

Molecule `CC(C)(O)c1cc2nn(C3CCN(CC4CCN(c5ccc6c(c5)C(=O)N(C5CCC(=O)NC5=O)C6=O)CC4)CC3)cc2cc1NC(=O)c1cccc(C(F)(F)F)n1` (stereo not drawn) [Example 7, N-(2-(1-((1-(2-(2,6-dioxopiperidin-3-yl)-1,3-dioxoisoindolin-5-yl)piperidin-4-yl)methyl)piperidin-4-yl)-6-(2-hydroxyprop-2-yl)-2H-indazol-5-yl)-6-(trifluoromethyl) pyridinecarboxamide] yielded an IC50 in data set [1] of 48 nM. Moreover, in data set [2], the half-maximal degradation concentration (DC50) came to 10.6 nM, the Dmax was 80.2%, the “WB D(%) (300 nM)” value was 82.9% and the “WB D(%) (1000 nM)” value is listed as 79.6%. In data set [3] (intravenous injection 1 mg/kg), this molecule registered a CL_pred of 5 mL/min/kg, a Vss_pred of 2.2 L/kg and an area under the curve AUC(0-t) of 3110 ng·h/mL. The same molecule yielded a bioavailability in data set [3] (po) of 13.4%. In data set [3] (setting [4]), this molecule showed an AUC(0-t) of 41600 ng·h/mL and a Cmax of 3260 ng/mL.

Take `CC(C)(O)c1cc2nn(C3CCN(CC(C)(C)N4CCN(c5ccc6c(c5)C(=O)N(C5CCC(=O)NC5=O)C6=O)CC4)CC3)cc2cc1NC(=O)c1cccc(C(F)(F)F)n1` (stereo not drawn) [Example 9]: inhibition in data set [1] was half-maximal at 32.7 nM (IC50). In data set [2], the DC50 worked out at 12.5 nM, the maximal degradation (Dmax) is 79.1%, the “WB D(%) (300 nM)” value was 81.1% and the “WB D(%) (1000 nM)” value stood at 74.4%.

On to `COc1cc2nn(C3CCN(CCOCCOc4ccc5c(c4)C(=O)N(C4CCC(=O)NC4=O)C5=O)CC3)cc2cc1NC(=O)c1cccc(C(F)(F)F)n1` (stereo not drawn) [Control group 1, N-(2-(1-(2-(2-((2-(2,6-dioxopiperidin-3-yl)-1,3-dioxoisoindolin-5-yl)oxy)ethoxy)ethyl)piperidin-4-yl)-6-methoxy-2H-indazol-5-yl)-6-(trifluoromethyl) pyridinecarboxamide, reference compound], for which, in data set [2], the greatest degradation seen (Dmax) was found to be 73.9%, the “WB D(%) (300 nM)” value came out at 73.9% and the “WB D(%) (1000 nM)” value is 65.1%.

In the case of `COc1cc2nn(C3CCN(CCN4CCN(c5ccc6c(c5)C(=O)N(C5CCC(=O)NC5=O)C6=O)CC4)CC3)cc2cc1NC(=O)c1cccc(C(F)(F)F)n1` (stereo not drawn) [Example 3, N-(2-(1-(2-(4-(2-(2,6-dioxopiperidin-3-yl)-1,3-dioxoisoindolin-5-yl)piperazin-1-yl)ethyl)piperidin-4-yl)-6-methoxy-2H-indazol-5-yl)-6-(trifluoromethyl) pyridinecarboxamide], in data set [1], inhibition was half-maximal at 56.7 nM (IC50). Further, in data set [2], the DC50 was 9.3 nM, the Dmax was 97.7%, the “WB D(%) (300 nM)” value was 96.7% and the “WB D(%) (1000 nM)” value is recorded as 96.4%.

Molecule `COc1cc2nn(C3CCN(CC4CCN(c5ccc6c(c5)C(=O)N(C5CCC(=O)NC5=O)C6=O)CC4)CC3)cc2cc1NC(=O)c1cccc(C(F)(F)F)n1` (stereo not drawn) [Example 2, N-(2-(1-((1-(2-(2,6-dioxopiperidin-3-yl)-1,3-dioxoisoindolin-5-yl)piperidin-4-yl)methyl)piperidin-4-yl)-6-methoxy-2H-indazol-5-yl)-6-(trifluoromethyl) pyridinecarboxamide] came in with an IC50 in data set [1] of 92.7 nM. In addition, in data set [2], the DC50 worked out at 15.7 nM, the Dmax stood at 90.5%, the “WB D(%) (300 nM)” value is on record as 90.5% and the “WB D(%) (1000 nM)” value is 86.5%. In data set [3] (intravenous injection 1 mg/kg), this molecule registered a CL_pred of 8.3 mL/min/kg, a Vss_pred of 3.3 L/kg and an AUC(0-t) of 1920 ng·h/mL. This molecule also registered a bioavailability in data set [3] (po) of 22.3%. In addition, in data set [3] (setting [4]), the area under the curve AUC(0-t) was 22400 ng·h/mL and the maximum concentration (Cmax) came out at 1230 ng/mL.

Turning to `CC(C)(O)c1cc2nn(C3CCN(CCC4CCC5(CC4)CCN(c4ccc6c(c4)C(=O)N(C4CCC(=O)NC4=O)C6=O)CC5)CC3)cc2cc1NC(=O)c1cccc(C(F)(F)F)n1` (stereo not drawn) [Example 12, N-(2-(1-(2-(3-(2-(2,6-dioxopiperidin-3-yl)-1,3-dioxoisoindolin-5-yl)-3-azaspiro[5.5]undec-9-yl)ethyl)piperidin-4-yl)-6-(2-hydroxyprop-2-yl)-2H-indazol-5-yl)-6-(trifluoromethyl) pyridinecarboxamide], the IC50 in data set [1] was determined as 60.9 nM. Also, in data set [2], the half-maximal degradation concentration (DC50) was 18.3 nM, the greatest degradation seen (Dmax) is 99.8%, the “WB D(%) (300 nM)” value came to 97.4% and the “WB D(%) (1000 nM)” value is on record as 97.9%.

`COc1cc2nn(C3CCN(CCC4CCN(c5ccc6c(c5)C(=O)N(C5CCC(=O)NC5=O)C6=O)CC4)CC3)cc2cc1NC(=O)c1cccc(C(F)(F)F)n1` (stereo not drawn) [Example 1, N-(2-(1-(2-(1-(2-(2,6-dioxopiperidin-3-yl)-1,3-dioxoisoindolin-5-yl)piperidin-4-yl)ethyl)piperidin-4-yl)-6-methoxy-2H-indazol-5-yl)-6-(trifluoromethyl) pyridinecarboxamide]: the IC50 in data set [1] amounted to 48.6 nM. Also, in data set [2], the half-maximal degradation concentration (DC50) was determined as 25.1 nM, the maximal degradation (Dmax) was found to be 98.8%, the “WB D(%) (300 nM)” value is 99.4% and the “WB D(%) (1000 nM)” value amounted to 99.8%.

(Values after patent publication US12624019B2, “Indazole derivative, and preparation method therefor and use thereof” (Leadingtac Pharmaceutical (Shaoxing) Co., Ltd., priority 2020, dated 2026).)
